# Reference: patent US7935707B2, “Imidazole derivatives” (Hoffman-La Roche Inc., priority 2007, dated 2011)
# Target: T1, human chemokine receptor 2 isoform B (Homo sapiens, UniProt P41597)
# T1 construct: host or cells: CHOK1-CCR2B-A5 (CHO-K1)
# T1 sequence (P41597 1-360 isoform P41597-2): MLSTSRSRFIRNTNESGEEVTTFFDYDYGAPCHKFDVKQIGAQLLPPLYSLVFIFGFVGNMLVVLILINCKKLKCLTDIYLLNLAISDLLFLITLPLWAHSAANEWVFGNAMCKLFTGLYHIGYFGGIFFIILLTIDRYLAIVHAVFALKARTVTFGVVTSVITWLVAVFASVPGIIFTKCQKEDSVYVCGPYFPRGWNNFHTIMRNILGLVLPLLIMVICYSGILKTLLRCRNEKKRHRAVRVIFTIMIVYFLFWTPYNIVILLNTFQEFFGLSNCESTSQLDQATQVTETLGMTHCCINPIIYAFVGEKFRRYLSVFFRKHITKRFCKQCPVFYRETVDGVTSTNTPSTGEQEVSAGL
# Experiment: Calcium mobilization assay
# Assay type: cell-based
# Conditions: CHOK1-CCR2B-A5 cells; antagonist activity against 20 nM MCP-1; FLIPR, Fluo-4
# Method: Calcium Mobilization Assay
# CHOK1-CCR2B-A5 cells (from Euroscreen) stably overexpressing the human chemokine receptor 2 isoform B were cultured in Nutrient Hams F12 medium supplemented with 5% FBS, 100 U/ml penicillin, 100 μg/ml streptomycin, 400 μg/ml G418 and 5 μg/ml puromycin. For the assay cells were grown overnight in 384-well black clear flat bottom polystyrene plates (Costar) at 37° C. at 5% CO2. After washing with DMEM, 20 mM Hepes, 2.5 mM probenecid, 0.1% BSA (DMEM assay buffer) cells were loaded with 4 μM Fluo-4 in the same DMEM assay buffer for 2 hours at 30° C. Excess dye was removed and cells were washed with DMEM assay buffer. 384-well compound plates were prepared with DMEM assay buffer/0.5% DMSO with or without various concentrations of test compounds. Usually compounds were tested for agonist and antagonist activity.
# Test compounds were added to the assay plate and agonist activity was monitored as fluorescence for 80 seconds with a FLIPR (488 nm excitation; 510-570 nm emission; Molecular Devices). After 20-30 min. of incubation at 30° C., 20 nM MCP-1 (R&D; Roche) was added and fluorescence was monitored again for 80 seconds. Increases in intracellular calcium are reported as maximum fluorescence after agonist exposure minus basal fluorescence before exposure. Antagonist activity is indicated as inhibitor concentration required for 50% inhibition of specific calcium increases.
row,Structure (SMILES),IC50
1,"CCCCCCc1cccc(-c2nc(I)c(C(=O)N3CCC(N(CC)CC)C3)n2C)c1 (racemic) [Example 1, (rac)-(3-Diethylamino-pyrrolidin-1-yl)-[2-(3-hexyl-phenyl)-5-iodo-3-methyl-3H-imidazol-4-yl]-methanone]",120 nM
2,"CCCCCCc1cccc(-c2nc(I)c(C(=O)N3CCCN(CCO)CC3)n2C)c1 [Example 3, [2-(3-Hexyl-phenyl)-5-iodo-3-methyl-3H-imidazol-4-yl]-[4-(2-hydroxy-ethyl)-[1,4]diazepan-1-yl]-methanone]",130 nM
3,"C#Cc1nc(-c2cccc(CCCCCC)c2)n(C)c1C(=O)N1CCC(N2CCCC2)CC1 [Example 13, [5-Ethynyl-2-(3-hexyl-phenyl)-3-methyl-3H-imidazol-4-yl]-(4-pyrrolidin-1-yl-piperidin-1-yl)-methanone]",35 nM
4,"CCCCCCc1cccc(-c2nc(C#N)c(C(=O)N3CCC(N4CCCC4)CC3)n2C)c1 [Example 18, 2-(3-Hexyl-phenyl)-1-methyl-5-(4-pyrrolidin-1-yl-piperidine-1-carbonyl)-1H-imidazole-4-carbonitrile]",75 nM
5,"Cn1c(-c2cccc(OC(F)(F)F)c2)nc(-c2cncnc2)c1C(=O)N1CCC(N2CCCC2)CC1 [Example 22, [3-Methyl-5-pyrimidin-5-yl-2-(3-trifluoromethoxy-phenyl)-3H-imidazol-4-yl]-(4-pyrrolidin-1-yl-piperidin-1-yl)-methanone]",90 nM
6,"CCc1nc(-c2cccc(OC(F)(F)F)c2)n(C)c1C(=O)N1CCC(N2CCCC2)CC1 [Example 25, [5-Ethyl-3-methyl-2-(3-trifluoromethoxy-phenyl)-3H-imidazol-4-yl]-(4-pyrrolidin-1-yl-piperidin-1-yl)-methanone]",71 nM
7,"Cn1c(-c2cccc(C(F)(F)F)c2)nc(I)c1C(=O)N1CCC(N2CCCC2)CC1 [Example 36, [5-Iodo-3-methyl-2-(3-trifluoromethyl-phenyl)-3H-imidazol-4-yl]-(4-pyrrolidin-1-yl-piperidin-1-yl)-methanone]",18 nM
8,"Cn1c(-c2cccc(OC(F)(F)F)c2)nc(I)c1C(=O)N1CCC(N2CCC[C@@H]2CO)CC1 [Example 46, [4-((R)-2-Hydroxymethyl-pyrrolidin-1-yl)-piperidin-1-yl]-[5-iodo-3-methyl-2-(3-trifluoromethoxy-phenyl)-3H-imidazol-4-yl]-methanone]",160 nM
